Assay results: patent US20200102264A1, “MARMELIN ANALOGS AND METHODS OF USE IN CANCER TREATMENT” (THE UNIVERSITY OF KANSAS, priority 2014, published 2020)

Key:
HCT116 cells [1] = assay: colony formation, HCT116; type: cell-based
HCT116 cells [2] = assay: cell cycle analysis, HCT116; type: cell-based; settings: HCT116, Table 3
SW480 cells [3] = assay: colony formation, SW480; type: cell-based
[4] = system: transcription factor NF-κB; settings: previous studies, Cancer Res. 2008; cited from earlier work
SW480 colon cancer cells = assay: hexoseaminidase cell proliferation assay, SW480; type: cell-based; settings: Homo sapiens
Excerpt: (§1) Using hexoseaminidase assay, we determined the effect of the compounds on cell proliferation. […]
(§2) Using hexoseaminidase assay, we determined the effect of the compounds on cell proliferation. […] […] […] Overall, the analogs can be used as chemotherapeutic agents against colon and pancreatic cancer.

SW480 cells [5] = assay: cell cycle analysis, SW480; type: cell-based; settings: SW480, Table 3
Description: The analogs were tested to determine the ability induce death of colon cancer cells.

[6] = system: PanC-1 pancreatic cancer cells; assay: hexoseaminidase cell proliferation assay, PanC-1; type: cell-based; settings: Homo sapiens
Description: (§3) Using hexoseaminidase assay, we determined the effect of the compounds on cell proliferation. […] The IC50 value at 48 hours is below 10 μM in all the cancer cell lines.
(§4) Using hexoseaminidase assay, we determined the effect of the compounds on cell proliferation. […] The MRL16 IC50 value at 48 hours is below 0.3 μM in Colon cancer cell lines. […] Overall, the analogs can be used as chemotherapeutic agents against colon and pancreatic cancer.

[7] = system: HCT116 colon cancer cells; assay: hexoseaminidase cell proliferation assay, HCT116; type: cell-based; settings: Homo sapiens, HCT-116
Excerpt: as §1, §2

[8] = system: MiaPaCa-2 pancreatic cancer cells; assay: hexoseaminidase cell proliferation assay, MiaPaCa-2; type: cell-based; settings: Homo sapiens, MIA PaCa-2
Description: as §3, §4

IC50 (SW480 colon cancer cells; SW480, 24 h): > 50 µM
IC50 (SW480 colon cancer cells; SW480, 48 h): > 50 µM
IC50 (SW480 colon cancer cells; SW480, 72 h): > 50 µM
IC50 ([6]; PANC-1, 24 h): > 50 µM
IC50 ([6]; PANC-1, 48 h): > 50 µM
IC50 ([6]; PANC-1, 72 h): > 50 µM
IC50 ([7]; HCT116, 24 h): > 50 µM
IC50 ([7]; HCT116, 48 h): > 50 µM
IC50 ([7]; HCT116, 72 h): > 50 µM
IC50 ([8]; MiaPaCa-2, 24 h): > 50 µM
IC50 ([8]; MiaPaCa-2, 48 h): > 50 µM
IC50 ([8]; MiaPaCa-2, 72 h): > 50 µM
Compound: COc1cc(OC)c2ccc(C=O)c(O)c2c1 [MRL, 1-hydroxy-5,7-dimethoxy-2-naphthalene-carboxaldehyde, reference compound]
colony formation (HCT116 cells [1]): does not appear to significantly inhibit colony formation
G0/G1 (%) (HCT116 cells [2]): 45.3%
G2M (%) (HCT116 cells [2]): 11.4%
S (%) (HCT116 cells [2]): 11.5%
SubG0 Dead Cells (%) (HCT116 cells [2]): 29.9%
colony formation (SW480 cells [3]): does not appear to significantly inhibit colony formation
action of transcription factor NF-κB [4]: can inhibit
G0/G1 (%) (SW480 cells [5]): 65.3%
G2M (%) (SW480 cells [5]): 18.1%
S (%) (SW480 cells [5]): 10.2%
SubG0 Dead Cells (%) (SW480 cells [5]): 6.0%
